Reference: patent US11203571B2, “Sulfonamides as modulators of sodium channels” (VERTEX PHARMACEUTICALS INCORPORATED, priority 2013, dated 2021)

How the values were obtained:
[1] = molecular target: human Nav1.8 (Homo sapiens (Human), UniProt Q9Y5Y9); assay: E-VIPR optical membrane potential assay with electrical stimulation; assay type: cell-based; conditions: HEK cells expressing human Nav1.8
Method in brief: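 HEK cells expressing human Nav1.8 were loaded with CC2-DMPE (8 μM) and DiSBAC6(3) (2.5 μM), then given compound for 20-35 min at room temperature (0.625% DMSO). Cells received a 10-s current-controlled electrical stimulus. Response was the stimulated/baseline 460/580 nm emission ratio (Rf/Ri), with tetracaine (125 μM) as positive control.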

[2] = Human liver microsome assay; assay type: in vitro ADME; conditions: 1 uM substrate, 0.5 mg/mL liver microsome, 2 mM NADPH, 37° C., referenced against time zero control
Method in brief: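 Pooled human liver microsomes (0.5 mg/mL) with 1 uM substrate (0.2% DMSO), 2 mM NADPH, 0.1 M phosphate, shaken 30 min at 37° C. Quenched with cold acetonitrile; parent quantified by LC/MS/MS. Value is % substrate remaining at 30 min versus a time-zero control without NADPH.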

Chain of human Nav1.8 (Q9Y5Y9 whole entry): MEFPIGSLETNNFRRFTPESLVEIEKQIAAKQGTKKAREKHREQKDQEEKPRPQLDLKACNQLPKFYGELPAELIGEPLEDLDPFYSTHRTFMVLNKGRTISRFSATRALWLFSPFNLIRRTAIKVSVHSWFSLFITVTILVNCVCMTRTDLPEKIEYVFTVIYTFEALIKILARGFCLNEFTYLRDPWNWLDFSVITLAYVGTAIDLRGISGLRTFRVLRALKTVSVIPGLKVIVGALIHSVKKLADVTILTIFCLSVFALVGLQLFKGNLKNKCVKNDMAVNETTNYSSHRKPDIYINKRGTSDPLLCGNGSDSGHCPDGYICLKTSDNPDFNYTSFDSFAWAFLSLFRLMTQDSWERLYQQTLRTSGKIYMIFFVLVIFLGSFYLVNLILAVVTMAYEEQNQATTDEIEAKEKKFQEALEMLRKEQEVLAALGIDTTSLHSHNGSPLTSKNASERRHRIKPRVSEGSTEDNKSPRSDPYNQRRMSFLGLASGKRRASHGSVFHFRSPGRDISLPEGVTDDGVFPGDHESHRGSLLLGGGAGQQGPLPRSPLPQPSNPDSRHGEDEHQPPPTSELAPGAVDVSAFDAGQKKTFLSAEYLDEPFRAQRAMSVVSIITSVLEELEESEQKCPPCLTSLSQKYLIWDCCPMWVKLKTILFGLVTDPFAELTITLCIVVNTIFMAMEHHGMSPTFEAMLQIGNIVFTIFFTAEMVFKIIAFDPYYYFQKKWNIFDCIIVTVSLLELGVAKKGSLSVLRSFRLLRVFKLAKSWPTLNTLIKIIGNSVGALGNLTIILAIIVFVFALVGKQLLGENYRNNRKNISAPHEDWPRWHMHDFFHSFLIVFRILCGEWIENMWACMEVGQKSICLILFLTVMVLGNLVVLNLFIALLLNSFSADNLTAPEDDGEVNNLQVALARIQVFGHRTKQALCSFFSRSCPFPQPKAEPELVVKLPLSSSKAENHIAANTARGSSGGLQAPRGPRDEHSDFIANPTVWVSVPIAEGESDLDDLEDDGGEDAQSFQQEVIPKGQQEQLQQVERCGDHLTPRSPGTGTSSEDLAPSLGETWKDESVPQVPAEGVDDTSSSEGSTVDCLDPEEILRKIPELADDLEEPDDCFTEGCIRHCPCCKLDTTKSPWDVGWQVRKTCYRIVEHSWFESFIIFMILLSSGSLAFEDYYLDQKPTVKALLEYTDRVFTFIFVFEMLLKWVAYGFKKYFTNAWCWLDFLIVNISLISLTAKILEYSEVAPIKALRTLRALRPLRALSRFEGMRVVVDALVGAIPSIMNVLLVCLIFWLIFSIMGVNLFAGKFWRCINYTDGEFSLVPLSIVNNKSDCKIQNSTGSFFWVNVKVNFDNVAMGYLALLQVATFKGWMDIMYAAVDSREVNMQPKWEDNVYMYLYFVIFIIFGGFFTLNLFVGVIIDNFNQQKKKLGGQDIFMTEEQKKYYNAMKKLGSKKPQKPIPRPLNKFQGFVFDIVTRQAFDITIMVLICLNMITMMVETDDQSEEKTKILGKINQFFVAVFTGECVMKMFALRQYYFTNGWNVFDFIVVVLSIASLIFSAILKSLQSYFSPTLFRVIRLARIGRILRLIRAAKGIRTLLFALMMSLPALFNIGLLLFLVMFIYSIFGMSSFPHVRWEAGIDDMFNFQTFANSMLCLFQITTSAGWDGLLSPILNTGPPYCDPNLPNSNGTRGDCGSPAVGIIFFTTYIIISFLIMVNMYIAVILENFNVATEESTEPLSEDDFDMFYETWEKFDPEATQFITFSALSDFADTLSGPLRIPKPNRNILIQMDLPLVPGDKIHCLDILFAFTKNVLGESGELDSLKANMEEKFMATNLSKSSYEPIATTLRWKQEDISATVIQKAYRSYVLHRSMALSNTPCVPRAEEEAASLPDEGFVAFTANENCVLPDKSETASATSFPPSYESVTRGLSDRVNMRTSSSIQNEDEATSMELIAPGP

IC50 [1] [nM]	HLM: percent unchanged after 30 min [2] [%]	SMILES
9	80	COc1c(Cl)cccc1Oc1cc(C(F)(F)F)ccc1C(=O)Nc1cccc(S(N)(=O)=O)c1 [Compound 68, 2-(3-chloro-2-methoxyphenoxy)-N-(3-sulfamoylphenyl)-4-(trifluoromethyl)benzamide]
26	110	NS(=O)(=O)c1cccc(NC(=O)c2ccc(C(F)(F)C(F)(F)F)cc2Oc2ccc(F)cc2)c1 [Compound 69, 2-(4-fluorophenoxy)-4-(perfluoroethyl)-N-(3-sulfamoylphenyl)benzamide]
13	87	COc1cc(F)ccc1Oc1cc(C(F)(F)C(F)(F)F)ccc1C(=O)Nc1cccc(S(N)(=O)=O)c1 [Compound 70, 2-(4-fluoro-2-methoxyphenoxy)-4-(perfluoroethyl)-N-(3-sulfamoylphenyl)benzamide]
28	81	COc1cc(Cl)ccc1Oc1cc(C(F)(F)C(F)(F)F)ccc1C(=O)Nc1cccc(S(N)(=O)=O)c1 [Compound 71, 2-(4-chloro-2-methoxyphenoxy)-4-(perfluoroethyl)-N-(3-sulfamoylphenyl)benzamide]
20	67	COc1ccc(Oc2cc(C(F)(F)C(F)(F)F)ccc2C(=O)Nc2cccc(S(N)(=O)=O)c2)c(Cl)c1 [Compound 72, 2-(2-chloro-4-methoxyphenoxy)-4-(perfluoroethyl)-N-(3-sulfamoylphenyl)benzamide]
26	95	NS(=O)(=O)c1cccc(NC(=O)c2ccc(C(F)(F)F)cc2Oc2ccccc2Cl)c1 [Compound 73, 2-(2-chlorophenoxy)-N-(3-sulfamoylphenyl)-4-(trifluoromethyl)benzamide]
15	102	NS(=O)(=O)c1cccc(NC(=O)c2c(Oc3ccccc3Cl)cccc2C(F)(F)F)c1 [Compound 74, 2-(2-chlorophenoxy)-N-(3-sulfamoylphenyl)-6-(trifluoromethyl)benzamide]
5	62	COc1ccc(Oc2cccc(C(F)(F)F)c2C(=O)Nc2cccc(S(N)(=O)=O)c2)c(Cl)c1 [Compound 75, 2-(2-chloro-4-methoxyphenoxy)-N-(3-sulfamoylphenyl)-6-(trifluoromethyl)benzamide]
1	95	COc1cc(F)ccc1Oc1cc(Cl)c(Cl)cc1C(=O)Nc1cccc(S(N)(=O)=O)c1 [Compound 77, 4,5-dichloro-2-(4-fluoro-2-methoxyphenoxy)-N-(3-sulfamoylphenyl)benzamide]
8	104	NS(=O)(=O)c1cccc(NC(=O)c2cc(Cl)c(Cl)cc2Oc2ccc(F)cc2)c1 [Compound 78, 4,5-dichloro-2-(4-fluorophenoxy)-N-(3-sulfamoylphenyl)benzamide]
4	91	COc1ccc(Oc2cc(Cl)c(Cl)cc2C(=O)Nc2cccc(S(N)(=O)=O)c2)cc1F [Compound 79, 4,5-dichloro-2-(3-fluoro-4-methoxyphenoxy)-N-(3-sulfamoylphenyl)benzamide]
4	108	COc1cc(Cl)ccc1Oc1cc(Cl)c(Cl)cc1C(=O)Nc1cccc(S(N)(=O)=O)c1 [Compound 80, 4,5-dichloro-2-(4-chloro-2-methoxyphenoxy)-N-(3-sulfamoylphenyl)benzamide]
8	88	COc1ccc(Oc2cc(Cl)c(Cl)cc2C(=O)Nc2cccc(S(N)(=O)=O)c2)c(F)c1 [Compound 81, 4,5-dichloro-2-(2-fluoro-4-methoxyphenoxy)-N-(3-sulfamoylphenyl)benzamide]
6	77	COc1ccc(Oc2cc(Cl)c(Cl)cc2C(=O)Nc2cccc(S(N)(=O)=O)c2)c(Cl)c1 [Compound 82, 4,5-dichloro-2-(2-chloro-4-methoxyphenoxy)-N-(3-sulfamoylphenyl)benzamide]
5	93	Cc1cc(F)ccc1Oc1cc(Cl)c(Cl)cc1C(=O)Nc1cccc(S(N)(=O)=O)c1 [Compound 83, 4,5-dichloro-2-(4-fluoro-2-methylphenoxy)-N-(3-sulfamoylphenyl)benzamide]
13	82	COc1ccc(Oc2cc(Cl)ccc2C(=O)Nc2cccc(S(N)(=O)=O)c2)c(OC)c1 [Compound 84, 4-chloro-2-(2,4-dimethoxyphenoxy)-N-(3-sulfamoylphenyl)benzamide]
15	82	COc1ccc(Oc2cc(Cl)ccc2C(=O)Nc2cccc(S(N)(=O)=O)c2)c(Cl)c1 [Compound 86, 4-chloro-2-(2-chloro-4-methoxyphenoxy)-N-(3-sulfamoylphenyl)benzamide]
7	105	NS(=O)(=O)c1cccc(NC(=O)c2c(Oc3ccc(F)cc3)cc(C(F)(F)F)cc2C(F)(F)F)c1 [Compound 88, 2-(4-fluorophenoxy)-N-(3-sulfamoylphenyl)-4,6-bis(trifluoromethyl)benzamide]
1	87	COc1cc(F)ccc1Oc1cc(C(F)(F)F)cc(C(F)(F)F)c1C(=O)Nc1cccc(S(N)(=O)=O)c1 [Compound 89, 2-(4-fluoro-2-methoxyphenoxy)-N-(3-sulfamoylphenyl)-4,6-bis(trifluoromethyl)benzamide]
7	92	COc1ccc(Oc2cc(C(F)(F)F)cc(C(F)(F)F)c2C(=O)Nc2cccc(S(N)(=O)=O)c2)cc1F [Compound 90, 2-(3-fluoro-4-methoxyphenoxy)-N-(3-sulfamoylphenyl)-4,6-bis(trifluoromethyl)benzamide]
7	69	COc1ccc(Oc2cc(C(F)(F)F)cc(C(F)(F)F)c2C(=O)Nc2cccc(S(N)(=O)=O)c2)c(F)c1 [Compound 91, 2-(2-fluoro-4-methoxyphenoxy)-N-(3-sulfamoylphenyl)-4,6-bis(trifluoromethyl)benzamide]
16	113	COc1ccc(F)cc1Oc1cc(C(F)(F)F)cc(C(F)(F)F)c1C(=O)Nc1cccc(S(N)(=O)=O)c1 [Compound 92, 2-(5-fluoro-2-methoxyphenoxy)-N-(3-sulfamoylphenyl)-4,6-bis(trifluoromethyl)benzamide]
2	96	Cc1cc(F)ccc1Oc1cc(C(F)(F)F)cc(C(F)(F)F)c1C(=O)Nc1cccc(S(N)(=O)=O)c1 [Compound 93, 2-(4-fluoro-2-methylphenoxy)-N-(3-sulfamoylphenyl)-4,6-bis(trifluoromethyl)benzamide]
5	97	NS(=O)(=O)c1cccc(NC(=O)c2c(Cl)cc(Cl)cc2Oc2ccc(F)cc2)c1 [Compound 94, 2,4-dichloro-6-(4-fluorophenoxy)-N-(3-sulfamoylphenyl)benzamide]
0.9	91	COc1cc(F)ccc1Oc1cc(Cl)cc(Cl)c1C(=O)Nc1cccc(S(N)(=O)=O)c1 [Compound 95, 2,4-dichloro-6-(4-fluoro-2-methoxyphenoxy)-N-(3-sulfamoylphenyl)benzamide]
1	96	Cc1cc(F)ccc1Oc1cc(Cl)cc(Cl)c1C(=O)Nc1cccc(S(N)(=O)=O)c1 [Compound 96, 2,4-dichloro-6-(4-fluoro-2-methylphenoxy)-N-(3-sulfamoylphenyl)benzamide]
4	102	NS(=O)(=O)c1cccc(NC(=O)c2c(Cl)cc(Cl)cc2Oc2ccc(OC(F)(F)F)cc2)c1 [Compound 97, 2,4-dichloro-N-(3-sulfamoylphenyl)-6-(4-(trifluoromethoxy)phenoxy)benzamide]
0.8	62	COc1cc(Cl)ccc1Oc1cc(Cl)cc(Cl)c1C(=O)Nc1cccc(S(N)(=O)=O)c1 [Compound 98, 2,4-dichloro-6-(4-chloro-2-methoxyphenoxy)-N-(3-sulfamoylphenyl)benzamide]
5	63	COc1ccc(Oc2cc(Cl)cc(Cl)c2C(=O)Nc2cccc(S(N)(=O)=O)c2)c(F)c1 [Compound 99, 2,4-dichloro-6-(2-fluoro-4-methoxyphenoxy)-N-(3-sulfamoylphenyl)benzamide]
